In US20200131249A1, “NOVEL PROTEINS AND USE THEREOF” (EVOLVERITAS KFT., priority 2017, published 2020):
pKi: −log10 of the molar value. Where no end group is shown, it is not given here.

Legend:
[1] = tested on: lectin pathway; assay: Lectin pathway activation tests in rat serum, all three assays (C3, C4, C5b-9 deposition); format: biochemical; details: result in words
Method: ELISA-based complement lectin pathway activation tests were performed on mannan coated plates using diluted individual (not pooled) rat serum. In these tests, inhibitory efficiencies of the protein of SEQ ID NO: 14 and SGMI-2 were compared. Three different assays were conducted that detect the deposition of C3, C4 or the terminal complement antigen C5b-9, respectively.
96-well Greiner high binding ELISA plates (cat. no. 655061) were coated with 100 μl/well 10 μg/ml mannan dissolved in coating buffer (50 mM sodium-carbonate pH 9.6) overnight at 4° C. Control wells contained coating buffer alone. Wells were blocked for at least 1 h at 37° C. with 200 μl/well
10 mg/ml bovine serum albumin (BSA) dissolved in 50 mM Tris pH 7.4, 150 mM NaCl, 0.1% Tween-20 buffer. Serial dilutions of the inhibitors were made in 10 mM HEPES pH 7.4, 150 mM NaCl, 5 mM CaCl2, 5 mM MgCl2, 0.1% Tween-20 buffer (serum dilution buffer). Rat serum was thawed on ice and diluted 35-fold in serum dilution buffer. […]
50 mM Tris pH 7.4, 150 mM NaCl, 5 mM CaCl2, 0.1% Tween-20 buffer (washing buffer) and 100 μl of the serum-inhibitor samples were transferred onto the plate. […] The 490 nm absorbance values were recorded using a PerkinElmer EnSpire multimode plate reader. Four parallels were measured for each data point. […]

[2] = tested on: intrinsic pathway; assay: Activated partial thromboplastin time (APTT) in human plasma
Method: (§1) Blood coagulation measurements using blood plasma taken from healthy human individuals were also performed. From the blood obtained through venipuncture and treated with sodium citrate (3.8% wt/vol) the plasma was isolated by centrifugation (2,000 g, 15 minutes, Jouan CR412 centrifuge).
(§2) The effect of the protein variants of the present invention on the blood coagulation process was tested in three standard assays, the thrombin time, testing any direct effects on thrombin; prothrombin time, testing any effects on the extrinsic pathway; and the activated partial thromboplastin time, testing any effects on the intrinsic pathway. Blood was collected from a healthy individual by vein puncture after informed consent. The blood was treated with sodium-citrate (3.8% w/v) and centrifuged. All three assays were performed on the automated instrument Sysmex CA-1500 (Sysmex) with Innovin reagent (Dale Behring, Marburg, Germany).
(§3) The inhibitors were applied in a fivefold serial dilution with the highest final concentration being 36 μM. This value is 3-4 orders of magnitudes higher than the KI values of the three protein variants of the present invention on human MASP-2. Even at the highest concentration the protein variants of the present invention have only little effect in the APTT test and no effect in the PT and TT tests.

[3] = tested on: extrinsic pathway; assay: Prothrombin time (PT) in human plasma
Method: as §1, §2, §3

[4] = tested on: thrombin; assay: Thrombin time (TT) in human plasma
Method: as §1, §2, §3

[5] = biological target: T1, human MASP-3 (Homo sapiens, UniProt P48740); details: Data from Héja et al. 2012a; cited from earlier work
T1 construct: catalytic enzyme fragments containing the three C-terminal domains: CCP1-CCP2-SP
T1 sequence (P48740 450-728 isoform P48740-2 limits assumed): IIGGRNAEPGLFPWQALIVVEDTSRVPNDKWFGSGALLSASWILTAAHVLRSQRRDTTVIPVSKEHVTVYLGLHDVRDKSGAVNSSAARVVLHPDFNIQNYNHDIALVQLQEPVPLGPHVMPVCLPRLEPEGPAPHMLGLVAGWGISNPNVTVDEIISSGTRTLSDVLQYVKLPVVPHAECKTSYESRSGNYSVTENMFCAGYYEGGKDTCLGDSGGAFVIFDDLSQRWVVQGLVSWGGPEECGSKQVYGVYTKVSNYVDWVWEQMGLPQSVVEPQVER

[6] = biological target: MASP-2 (Homo sapiens, UniProt O00187); design: catalytic enzyme fragments containing the three C-terminal domains: CCP1-CCP2-SP; made in house; inclusion bodies, renatured; details: Data from Héja et al. 2012b; cited from earlier work
Sequence of MASP-2 (O00187 445-686 limits assumed): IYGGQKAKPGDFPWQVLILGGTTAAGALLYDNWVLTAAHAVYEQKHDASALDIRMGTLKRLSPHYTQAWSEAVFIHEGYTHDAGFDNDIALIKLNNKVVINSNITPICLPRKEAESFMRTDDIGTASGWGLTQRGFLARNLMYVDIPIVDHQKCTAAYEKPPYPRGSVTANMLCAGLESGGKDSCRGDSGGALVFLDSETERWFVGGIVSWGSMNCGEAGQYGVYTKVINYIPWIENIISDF
Sequence of MASP-2 (O00187 287-444 partner limits assumed): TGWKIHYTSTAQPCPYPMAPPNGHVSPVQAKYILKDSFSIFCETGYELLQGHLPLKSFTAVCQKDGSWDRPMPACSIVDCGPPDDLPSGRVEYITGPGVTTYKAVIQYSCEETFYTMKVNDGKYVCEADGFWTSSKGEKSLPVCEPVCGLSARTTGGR

In the case of “SEQ ID NO: 14: TFPI-D2 variant protein with inhibitor loop PCRAVKR (SEQ ID NO: 4) (KPDFCFLEEDPGPCRAVKRRYFYNNQTKQCERFKYGGCLGNMNNFETLEECKNICEDG; ends and bridges not checked; cysteine pairing not given here)”, the “inhibition of the lectin pathway in rat serum” value [1] was “completely inhibit”, the APTT ([2]; inhibitor 0.1 μM) was 36.1 s and the APTT ([2]; inhibitor 0.3 μM) was 36.8 s. The APTT ([2]; inhibitor 1.4 μM) was 37.9 s, the APTT ([2]; inhibitor 7.2 μM) was 40.2 s and the APTT ([2]; inhibitor 36.0 μM) was 46.4 s. It also gave a PT ([3]; inhibitor 0.1 μM) of 10.8 s, a PT ([3]; inhibitor 0.3 μM) of 10.7 s and a PT ([3]; inhibitor 1.4 μM) of 10.8 s. For the same substance, the PT ([3]; inhibitor 7.2 μM) was 10.9 s, the PT ([3]; inhibitor 36.0 μM) was 11.3 s and the TT ([4]; inhibitor 0.1 μM) was 16.5 s. The TT ([4]; inhibitor 0.3 μM) was 16.6 s, the TT ([4]; inhibitor 1.4 μM) was 16.7 s and the TT ([4]; inhibitor 7.2 μM) was 16.2 s. The TT ([4]; inhibitor 36.0 μM) was 15.5 s.
For “SGMI-2 (GSGEVTCEPGTTFKDKCNTCRCGSDGKSAVCTKLWCNQ; Synthetic protein of insect origin) [reference compound]”, the “inhibition of the lectin pathway in rat serum” value [1] is given as “completely inhibit”, the pKi [5] is given as ~5.30 and the pKi [6] is given as 8.22.
